The record followed here is patent publication US12729377B2, “RNAi agents and compositions for inhibiting expression of angiopoietin-like 3 (ANGPTL3), and methods of use” (Arrowhead Pharmaceuticals, Inc., priority 2017, dated 2026).

In the oligonucleotide strings, read from the 5' end, every base follows the letter of its sugar. An asterisk marks phosphorothioate; unmarked linkages are phosphodiester. Other units and linkages are bracketed, terminal groups are in braces. A string of capitals states the bases alone. {NAG37} = tridentate N-acetyl-galactosamine targeting ligand, structure (NAG37)s; [invAb] = inverted abasic unit; m = 2'-O-methyl; f = 2'-fluoro

Data set [1] has as its system ANGPTL3 gene. The experiment in a line: Example 9: serum HDL in cynomolgus monkeys. Format: in vivo, cynomolgus macaque (Macaca fascicularis). The note with it: 2.0 mg/kg single SC injection day 1, cynos, n=3. The protocol:
Additional ANGPTL3 RNAi agents were evaluated in cynomolgus monkeys. On day 1, cynomolgus macaque (Macaca fascicularis) primates (also referred to herein as “cynos”) were administered a single subcutaneous injection of 0.3 mL/kg (approximately 2-3 mL volume, depending on animal mass) containing 2.0 mg/kg of an ANGPTL3 RNAi agent, which included either AD05488, AD05743, AD05775, or AD05841, each formulated in saline. […] ANGPTL3 RNAi agents AD05488, AD05743, and AD05775 included nucleotide sequences designed to target position 304 of the ANGPTL3 gene. ANGPTL3 RNAi agent AD05841 included nucleotide sequences designed to target position 1035 of the ANGPTL3 gene.
Three (3) cynos in each group were tested (n=3). Blood samples were drawn and serum samples were analyzed on days −14 (predose), −7 (predose), 1 (pre-dose), 8, 15, 22, 29, and 35. Cynos were fasted overnight prior to each collection. ANGPTL3 protein levels in serum were measured by ELISA assay (R&D Systems), according to the manufacturer's recommendations. Triglycerides, total cholesterol, high-density lipoprotein (HDL), and low-density lipoprotein (LDL) in serum were measured on a Cobas® Integra 400 (Roche Diagnostics), according to the manufacturer's recommendations.
The ANGPTL3 protein levels, triglyceride levels, total cholesterol levels, HDL levels, and LDL levels for each animal were normalized. For normalization, the level of ANGPTL3 protein, triglyceride, HDL, and total cholesterol, respectively, for each animal at a time point, was divided by the average pre-treatment level of expression in that animal (in this case at days −14, −7, and 1) to determine the ratio of expression “normalized to pre-treatment.”

For data set [2], the system named is ANGPTL3 gene. The experiment in a line: Example 10: serum LDL in mice. Format: in vivo, C57bl/6 mice. The settings on record: 0.5 mg/kg sc. On the procedure:
To assess the in vivo activity of further ANGPTL3 RNAi agents that are designed to target position 304 on the ANGPTL3 gene, six- to eight-week-old female C57bl/6 mice were used. Pre-dose serum samples were taken at day −1 after a four hour fast. At day 1, each mouse was given a single subcutaneous administration of 200 μl containing 0.5 mg/kg (mpk) of an ANGPTL3 RNAi agent in D5W (dextrose in 5% water), or control (D5W) with no RNAi agent, according to the dosing groups recited in Table 47.
Each of the RNAi agents included a modified sequence and an N-acetyl-galactosamine-containing targeting ligand conjugated to the 5′ terminal end of the sense strand. (See Tables 3, 4, and 5 for modified sequences and targeting ligand structures). As noted above, each of the ANGPTL3 RNAi agents dosed in this study included nucleotide sequences designed to target the ANGPTL3 gene at position 304. The injections were performed between the skin and muscle (i.e. subcutaneous injections) into the loose skin over the neck and shoulder area. Three (3) mice in each group were tested (n=3). Serum was collected on days 8, 15, 22, 29, and for some groups on day 36 (i.e., Groups 1, 2, and 9-13 only). Mice were fasted for four hours prior to each collection. ANGPTL3 protein levels in serum were measured by ELISA assay (R&D Systems), according to the manufacturer's recommendations. Triglycerides, total cholesterol, high-density lipoprotein (HDL), and low-density lipoprotein (LDL) in serum were measured on a Cobas® Integra 400 (Roche Diagnostics), according to the manufacturer's recommendations.
The ANGPTL3 protein levels, triglyceride levels, total cholesterol levels, HDL levels, and LDL levels for each animal were normalized. For normalization, the level of ANGPTL3 protein, triglyceride, HDL, and total cholesterol, respectively, for each animal at a time point, was divided by the pre-treatment level of expression in that animal (in this case at day −1) to determine the ratio of expression “normalized to pre-treatment.” Expression at a specific time point was then normalized to the D5W control group by dividing the “normalized to pre-treatment” ratio for an individual animal by the mean “normalized to pretreatment” ratio of all mice in the D5W control group.

The test system of a further data set is ANGPTL3 mRNA. Kind of data set: Example 11: liver ANGPTL3 mRNA by RT-qPCR in mice. Format: in vivo, C57bl/6 mice. On the procedure:
To assess the dose response of ANGPTL3 RNAi agent AD05488, six- to eight-week-old female C57bl/6 mice were used. Pre-dose serum samples were taken at day −1 after a four hour fast. At day 1, each mouse was given a single subcutaneous administration of 200 μl containing the respective mg/kg dose of an ANGPTL3 RNAi agent in D5W (dextrose in 5% water), or control (D5W) with no RNAi agent, according to the dosing groups recited in Table 53:
Additionally, ANGPTL3 mRNA levels were also assessed. All of the mice from each respective group were sacrificed on day 29 after serum collection, livers were harvested, and approximately 100 mg liver samples were collected and snap-frozen in liquid nitrogen for RNA isolation.
In general terms: Quantitative PCR measures a nucleic acid by following its amplification.

As to “AD05488: RNAi agent duplex: antisense AM07235-AS, sense AM07234-SS (antisense mU*fA*mC*fUmGfAmUfCmAfAmAfUmAfUmGfUmUfGmAfG*mC; sense {NAG37}*[invAb]*mGmCmUmCmAmAmCmAfUfAfUmUmUmGmAmUmCmAmGmUmA*[invAb])”, the “Average HDL Normalized to Pre-Treatment” value in the data set on ANGPTL3 gene [1] (Day 8) is on record as 0.985; with ANGPTL3 gene [1] (Day 15) it was 0.911; with ANGPTL3 gene [1] (Day 22), 0.849; with ANGPTL3 gene [1] (Day 29), 0.856; with ANGPTL3 gene [1] (Day 35), 0.810. Besides, the “Avg LDL Normalized to Pre-Treatment and Control” value in the data set with ANGPTL3 gene [2] (Day 8) amounted to 0.836; in the data set on ANGPTL3 gene [2] (Day 15), 0.969; in the data set with ANGPTL3 gene [2] (Day 22) it was 0.901; with ANGPTL3 gene [2] (Day 29), 0.762; in the data set on ANGPTL3 gene [2] (Day 36), 0.863. In addition, the “Avg Relative ANGPTL3 mRNA, Normalized to Control” value in the data set with ANGPTL3 mRNA (0.05 mg/kg single sc day 1, Day 29) amounted to 0.798; with ANGPTL3 mRNA (0.1 mg/kg single sc day 1, Day 29), 0.563; in the data set with ANGPTL3 mRNA (0.5 mg/kg single sc day 1, Day 29), 0.277; with ANGPTL3 mRNA (1.0 mg/kg single sc day 1, Day 29), 0.123; in the data set with ANGPTL3 mRNA (2.5 mg/kg single sc day 1, Day 29) it was 0.036; in the data set on ANGPTL3 mRNA (5.0 mg/kg single sc day 1, Day 29), 0.038. Further, in the data set with ANGPTL3 mRNA (day 29, single subcutaneous dose, C57bl/6 mice), the “reduction in ANGPTL3 mRNA” value is “reduction”.
